# From patent US20070299119A1, “Prophylactic or Therapeutic Agent for Severe Diabetic Retinopathy” (SANWA KAGAKU KENKYUSHO CO., LTD., priority 2004, published 2007)
# Tested on: severe retinopathy (tractional retinal detachment, IRMA) in SDT rats
# Test: Histopathological examination and fluorescein fundus angiography of severe retinopathy in spontaneously diabetic Torii (SDT) rats
# Type: in vivo, rat
# Procedure: Diabetes mellitus occurs in spontaneously diabetic Torii (SDT) rats at about 20 weeks of age. Accordingly, blood glucose levels were confirmed at about 25 weeks of age, and rats showing an increase in blood glucose level (at least 300 mg/dl) were used in the experiment. The male SDT rats confirmed to develop diabetes mellitus were divided into two groups, that is, 1) untreatment control (n=14) group and 2) SNK-860 treatment (16 mg/kg/day, n=17)group. The compound was mixed with usual feed (CRF-1: Oriental Yeast Co., Ltd.) and then administered into the rats. The CRF-1 solid feed not containing the compound was freely ingested by the control group, while CRF-1 solid feed containing 0.01333% SNK-860 was freely ingested by the SNK-860 treatment group. At 36 weeks of age and at 52 to 58 weeks of age, the rats were anesthetized and then the eyeballs were excised and used in histopathological examination. The SNK-860-containing feed was prepared in the following manner. SNK-860 was weighed and mixed well with a small amount of CRF-1 powdered feed. Thereafter, additional powdered feed was added thereto, stirred well and solidified. The dose established this time was 16 mg/kg. The concentration of this agent in the feed, calculated on the basis of the established dose, the weight of the rat and the amount of the feed ingested for 1 day, was 0.01333%. The histopathological examination was carried out in the following manner. The rat was anesthetized with ether and by intraperitoneal administration of Nembutal, and then the eyeballs were excised. The excised eyeballs were placed in a mixed solution (1:1:2) consisting of 4% glutaraldehyde, 10% neutral formalin and a phosphate buffer (pH 7.2, 0.3 mol/l). After 60 minutes, the eyeball was cut into halves under a stereoscopic microscope and then stored overnight at 4° C. The next morning, the eyeballs were embedded in a usual manner into paraffin to prepare a transverse section containing a bundle of optic nerves. The section was stained with hematoxylin-eosin. Fluorescein fundus angiography was carried out by opening the chest under the same anesthesia, injecting fluorescein dextran (Sigma, 50 mg/1 ml PBS) into the heart, and after 5 minutes, excising the eyeballs. That is, the retina was separated from the excised eyeball, spread on a slide glass to prepare a flat mounted specimen of the retina, then observed with a stereoscopic fluorescent microscope and photographed to evaluate retinopathy. When retinal fold (retinal detachment) accompanied by thickening of the retina around optic nerve head was recognized in the pathological examination, or when fluorescence dye leakage accompanied by retinal vascular tortuosity and/or caliber variation around optic nerve head was recognized in the fluorescein fundus photography, it was assumed that severe retinopathy occurred in the SDT rat. […] That is, it was attempted to clarify the inhibitory effect on the onset by setting a longer duration of the disease.
# [1] = male SDT rats, 16 mg/kg/day in feed from about 25 weeks of age, at 36 weeks of age, pathological examination
smiles,measurement,setting,value
"NC(=O)[C@@H]1C[C@]2(NC(=O)NC2=O)c2cc(F)ccc2O1 [SNK-860, (2S,4S)-6-fluoro-2′,5′-dioxospiro[chroman-4,4′-imidazolidine]-2-carboxamide]",inhibitory effect on the onset of tractional retinal detachment (in words),"SDT rats, long-term administration",strongly inhibited
same,onset of tractional retinal detachment (affected eyes/examined eyes),[1],0/3
same,onset of tractional retinal detachment (percent of eyes),[1],0%
same,degree of onset of tractional retinal detachment or fluorescence dye leakage accompanied by retinal vascular tortuosity and/or caliber variation around optic nerve head (affected eyes/examined eyes),"male SDT rats, 16 mg/kg/day in feed from about 25 weeks of age, at 52-58 weeks of age, untreated 7/11 eyes",3/14
same,degree of onset of tractional retinal detachment or fluorescence dye leakage accompanied by retinal vascular tortuosity and/or caliber variation around optic nerve head (percent of eyes),"male SDT rats, 16 mg/kg/day in feed from about 25 weeks of age, at 52-58 weeks of age, untreated 64%",21%
